In this assay the target is T1, hSTING (Homo sapiens, UniProt Q86WV6, G230A/H232R/R293Q/R71H).
T1 construct: host or cells: THP1-Dual KO-IFNAR2 cells
The assay is described as follows: STING reporter assay (luciferase) in THP1-Dual KO-IFNAR2 cells stimulated with 2′3′cGAMP. In kind it is cell-based. The conditions noted are these: 2′3′cGAMP 15 μM, 24 h. In short, it runs like this:
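THP1-Dual KO-IFNAR2 cells (2×10E6 cells/mL) were treated with compound at 0.0017-100 μM final plus 15 μM final 2′3′cGAMP delivered with Lipofectamine 2000. After 24 h at 37° C., secreted luciferase in supernatant was read by QUANTI-Luc luminescence and EC50 values were fitted.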
Background: Reporter assays use an easily measured gene product as a stand-in for the process of interest.

T1 sequence (Q86WV6 whole entry R71H/G230A/H232R/R293Q): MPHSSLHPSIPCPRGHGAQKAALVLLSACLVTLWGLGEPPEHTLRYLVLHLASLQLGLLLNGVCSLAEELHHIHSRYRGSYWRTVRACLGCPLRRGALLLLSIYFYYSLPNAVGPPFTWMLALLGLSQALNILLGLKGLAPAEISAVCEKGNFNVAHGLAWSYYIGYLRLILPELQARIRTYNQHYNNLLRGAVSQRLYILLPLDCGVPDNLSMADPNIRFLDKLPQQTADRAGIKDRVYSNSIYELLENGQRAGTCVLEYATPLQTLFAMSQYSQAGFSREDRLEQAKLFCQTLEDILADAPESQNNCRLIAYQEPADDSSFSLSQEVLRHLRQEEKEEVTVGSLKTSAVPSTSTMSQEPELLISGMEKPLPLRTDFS

With `Cc1cc(NC(=O)Nc2c[nH]c3ncc(Cl)cc23)cnc1C1CCC(F)(F)CC1` [Compound 137, 1-(5-chloro-1H-pyrrolo[2,3-b]pyridin-3-yl)-3-(6-(4,4-difluorocyclohexyl)-5-methylpyridin-3-yl)urea], the EC50 (commonly the concentration that produces a half-maximal response) (class symbols) fell in the range of 1 to 5 µM. Consider `O=C(Nc1ccc(C2CCC(F)(F)CC2)nc1)Nc1c[nH]c2nc(Br)c(F)cc12` [Compound 180, 1-(6-bromo-5-fluoro-1H-pyrrolo[2,3-b]pyridin-3-yl)-3-(6-(4,4-difluorocyclohexyl)pyridin-3-yl)urea], for which the half-maximal effective concentration (EC50) (class symbols) was 5 to 100 µM. The same measure, in the same setting: to `COc1ccc2[nH]cc(NC(=O)Nc3cnc(C4CCC(F)(F)CC4)c(F)c3)c2n1` [Compound 229, 1-(6-(4,4-difluorocyclohexyl)-5-fluoropyridin-3-yl)-3-(5-methoxy-1H-pyrrolo[3,2-b]pyridin-3-yl)urea] belongs 0.2 to 1 µM; to `O=C(Nc1ccc(N2CCC(F)(F)CC2)nc1)Nc1c[nH]c2ncc(F)cc12` [Compound 118, 1-(6-(4,4-difluoropiperidin-1-yl)pyridin-3-yl)-3-(5-fluoro-1H-pyrrolo[2,3-b]pyridin-3-yl)urea], 0.2 to 1 µM. Same read-out and setting: with `COc1ccc2[nH]cc(NC(=O)Nc3cnc(N4CC(F)(F)C4)c(F)c3)c2n1` [Compound 232, 1-(6-(3,3-difluoroazetidin-1-yl)-5-fluoropyridin-3-yl)-3-(5-methoxy-1H-pyrrolo[3,2-b]pyridin-3-yl)urea] the figure was 1 to 5 µM. For the compound `CCc1ccc2[nH]cc(NC(=O)Nc3cnc(N4CCC(F)(F)CC4)c(C)c3)c2n1` [Compound 139, 1-(6-(4,4-difluoropiperidin-1-yl)-5-methylpyridin-3-yl)-3-(5-ethyl-1H-pyrrolo[3,2-b]pyridin-3-yl)urea], the EC50 (class symbols) is 1 to 5 µM. Where the note is “class symbols”, `O=C(Nc1cnc(N2CCC(F)(F)CC2)c(Cl)c1)Nc1c[nH]c2cccnc12` [Compound 188, 1-(5-chloro-6-(4,4-difluoropiperidin-1-yl)pyridin-3-yl)-3-(1H-pyrrolo[3,2-b]pyridin-3-yl)urea] yielded an EC50 of 0.2 to 1 µM. Compound `O=C(Nc1cnc(N2CC(F)(F)C2)c(Cl)c1)Nc1c[nH]c2cccnc12` [Compound 242, 1-(5-chloro-6-(3,3-difluoroazetidin-1-yl)pyridin-3-yl)-3-(1H-pyrrolo[3,2-b]pyridin-3-yl)urea] had a 50% effective concentration (EC50) (numeric bounds) of more than 10 µM. For `O=C(Nc1cnc(N2CCC3(CC2)CC(F)(F)C3)c(Cl)c1)Nc1c[nH]c2cccnc12` [Compound 226, 1-(5-chloro-6-(2,2-difluoro-7-azaspiro[3.5]nonan-7-yl)pyridin-3-yl)-3-(1H-pyrrolo[3,2-b]pyridin-3-yl)urea], the EC50 (class symbols) fell in the range of 0.2 to 1 µM.
